Consider 36 compounds from patent US20240246969A1, “HETEROCYCLIC DERIVATIVES AS CAMKK2 INHIBITORS” (Bristol-Myers Squibb Company, priority 2021, published 2024).

CaMKK2, sequence (Q96RR4 whole entry): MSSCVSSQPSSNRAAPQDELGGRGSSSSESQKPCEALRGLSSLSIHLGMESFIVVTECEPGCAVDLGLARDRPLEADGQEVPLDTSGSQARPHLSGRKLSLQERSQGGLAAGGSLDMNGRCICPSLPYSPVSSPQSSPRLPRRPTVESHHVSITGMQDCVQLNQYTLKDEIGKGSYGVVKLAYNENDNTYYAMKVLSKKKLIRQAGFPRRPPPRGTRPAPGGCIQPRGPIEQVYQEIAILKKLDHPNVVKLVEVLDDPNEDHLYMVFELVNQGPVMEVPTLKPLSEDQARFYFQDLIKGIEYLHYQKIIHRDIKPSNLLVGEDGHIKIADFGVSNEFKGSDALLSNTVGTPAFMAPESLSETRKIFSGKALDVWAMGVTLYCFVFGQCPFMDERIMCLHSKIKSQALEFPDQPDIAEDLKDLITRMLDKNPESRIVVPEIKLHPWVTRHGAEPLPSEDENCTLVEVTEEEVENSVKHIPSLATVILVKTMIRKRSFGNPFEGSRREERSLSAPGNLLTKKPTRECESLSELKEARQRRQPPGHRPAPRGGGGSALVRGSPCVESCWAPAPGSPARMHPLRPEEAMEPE

One experiment addresses CaMKK2 (Homo sapiens, UniProt Q96RR4). Briefly: CaMKK2 binding assay (LanthaScreen TR-FRET).
Conditions: not given
The protocol: The ability of test compounds to bind and inhibit the activity of CaMKK2 were determined using a binding assay using LanthaScreent (Thermofisher) detection reagents in a 384-well plate format using the following assay buffer: 50 mM HEPES (pH7.5), 10 mM MgCl2, 1 mM EGTA, and 0.01% Brij-35.
A 10-point serial dilution of inhibitor compound in 0.5% DMSO was added to each well of the plate. The final assay volume in well was 15 uL. […] A ratio was calculated from the 2 readouts and fitted to a 4-parameter fit to determine the binding IC50.
With `Cc1cc(C)cc(-c2cnc3ccn(-c4ccc(C(=O)O)c(N[C@@H]5CCCNC5)c4)c3n2)c1` [Example 33, (R)-4-(3-(3,5-dimethylphenyl)-5H-pyrrolo[2,3-b]pyrazin-5-yl)-2-(piperidin-3-ylamino)benzoic Acid], the IC50 is less than 100 nM. In turn, `COc1ccc(-c2cc3nccc(-c4ccc(C(=O)O)c(C5CCCC5)c4)n3n2)cc1` [Example 2.8, 2-Cyclopentyl-4-(2-(4-methoxyphenyl)pyrazolo[1,5-a]pyrimidin-7-yl)benzoic Acid] had a half-maximal inhibitory concentration (IC50) of less than 100 nM.

The compound `Cc1cc(C)cc(-c2cnc3ccn(-c4ccc(C(=O)O)c(NC5CCNCC5)c4)c3n2)c1` [Example 34, 4-(3-(3,5-dimethylphenyl)-5H-pyrrolo[2,3-b]pyrazin-5-yl)-2-(piperidin-4-ylamino)benzoic Acid] gave an IC50 of less than 100 nM. Take `O=C(O)c1ccc(-c2c(F)cnc3cn(-c4cc(F)cc(Cl)c4)nc23)cc1C1CCCC1` [Example 3.10, 4-(2-(3-Chloro-5-fluorophenyl)-6-fluoro-2H-pyrazolo[4,3-b]pyridin-7-yl)-2-cyclopentylbenzoic Acid]: the IC50 was less than 100 nM. Take `Cc1cc(C)cc(-c2cnc3ccn(-c4ccc(C(=O)O)c(C5CCNC5)c4)c3n2)c1` (single isomer, unassigned) [Example 26]: the IC50 is less than 100 nM. Same read-out and setting: the result for `O=C(O)c1ccc(-c2c(F)cnc3cn(-c4cc(Cl)cc(C(F)(F)F)c4)nc23)cc1C1CCCC1` [Example 3.15, 4-(2-(3-Chloro-5-(trifluoromethyl)phenyl)-6-fluoro-2H-pyrazolo[4,3-b]pyridin-7-yl)-2-cyclopentylbenzoic] reads less than 100 nM; that for `Cc1cccc(-c2cc3c(-c4ccc(C(=O)O)c(C5CCCC5)c4)ccnn3c2)c1` [Example 4.2, 2-Cyclopentyl-4-[6-(m-tolyl)pyrrolo[1,2-b]pyridazin-4-yl]benzoic Acid], less than 100 nM. Regarding `O=C(O)c1ccc(-c2c(F)cnc3cn(-c4cc(F)cc(C(F)(F)F)c4)nc23)cc1C1CCCC1` [Example 3.14, 2-Cyclopentyl-4-(6-fluoro-2-(3-fluoro-5-(trifluoromethyl)phenyl)-2H-pyrazolo[4,3-b]pyridin-7-yl)benzoic Acid], the IC50 was less than 100 nM. On the same count and under the same terms, the result for `O=C(O)c1ccc(-n2ccc3ncc(-c4ccc(F)cc4F)nc32)cc1NC1CC1` [Example 10, 2-(Cyclopropylamino)-4-(3-(2,4-difluorophenyl)-5H-pyrrolo[2,3-b]pyrazin-5-yl)benzoic Acid] reads less than 100 nM; that for `O=C(NS(=O)(=O)C(F)(F)F)c1ccc(-n2ccc3ncc(C4CC4)nc32)cc1C1CCCC1` [Example 21, 2-Cyclopentyl-4-(3-cyclopropyl-5H-pyrrolo[2,3-b]pyrazin-5-yl)-N-((trifluoromethyl)sulfonyl)benzamide], 100 to 1000 nM; that for `Cn1ncc2cc(-c3cnc4ccn(-c5ccc(C(=O)O)c(NCC6CC6)c5)c4n3)c(F)cc21` [Example 8, 2-((Cyclopropylmethyl)amino)-4-(3-(6-fluoro-1-methyl-1H-indazol-5-yl)-5H-pyrrolo[2,3-b]pyrazin-5-yl)benzoic Acid], less than 100 nM. Same read-out and setting: the result for `c1ccc(-c2cnc3ccn(-c4ccc(-c5nn[nH]n5)c(C5CCCC5)c4)c3n2)cc1` [Example 23, 5-(3-Cyclopentyl-4-(2H-tetrazol-5-yl)phenyl)-3-phenyl-5H-pyrrolo[2,3-b]pyrazine] reads less than 100 nM.

On to `COc1cccc(-c2cc3nccc(-c4ccc(C(=O)O)c(C5CCCC5)c4)n3n2)c1` [Example 2.9, 2-Cyclopentyl-4-(2-(3-methoxyphenyl)pyrazolo[1,5-a]pyrimidin-7-yl)benzoic Acid], for which the IC50 is less than 100 nM.

Compound `O=C(O)c1ccc(-n2ccc3ncc(-c4ccc(F)cc4)nc32)cc1NCC1CC1` [Example 11, 2-((Cyclopropylmethyl)amino)-4-(3-(4-fluorophenyl)-5H-pyrrolo[2,3-b]pyrazin-5-yl)benzoic Acid] came in with an IC50 of less than 100 nM. For `COc1cc2nccc(-c3ccc(C(=O)O)c(C4CCCC4)c3)n2n1` [Example 2.3, 2-Cyclopentyl-4-(2-methoxypyrazolo[1,5-a]pyrimidin-7-yl)benzoic Acid], the IC50 was less than 100 nM. Consider `COc1cc(-c2ccnc3cc(-c4ccc(F)cc4)nn23)ccc1C(=O)N[C@H](CO)c1ccccc1` [Example 2.13, (S)-4-(2-(4-Fluorophenyl)pyrazolo[1,5-a]pyrimidin-7-yl)-N-(2-hydroxy-1-phenylethyl)-2-methoxybenzamide], for which the IC50 was less than 100 nM. Regarding `Cn1cc2ccc(-c3cnc4ccn(-c5ccc(C(=O)O)c(NCC6CC6)c5)c4n3)cc2n1` [Example 17, 2-((Cyclopropylmethyl)amino)-4-(3-(2-methyl-2H-indazol-6-yl)-5H-pyrrolo[2,3-b]pyrazin-5-yl)benzoic Acid], the IC50 was less than 100 nM. In turn, `CCOc1cc2nccc(-c3ccc(C(=O)O)c(C4CCCC4)c3)n2n1` [Example 2.4, 2-Cyclopentyl-4-(2-ethoxypyrazolo[1,5-a]pyrimidin-7-yl)benzoic Acid] gave an IC50 of less than 100 nM.

`O=C(O)c1ccc(-c2c(F)cnc3cn(-c4ccc(F)cc4)nc23)cc1NC1CC1` [Example 3.21, 2-(Cyclopropylamino)-4-(6-fluoro-2-(4-fluorophenyl)-2H-pyrazolo[4,3-b]pyridin-7-yl)benzoic Acid] registered an IC50 of less than 100 nM. Still for that read-out and setting: the result for `O=C(O)c1ccc(-c2ccnc3cc(-c4cccc(F)c4)nn23)cc1C1CCCC1` [Example 2.7, 2-Cyclopentyl-4-(2-(3-fluorophenyl)pyrazolo[1,5-a]pyrimidin-7-yl)benzoic Acid] reads less than 100 nM.

`Cc1cc(C)cc(-c2cnc3ccn(-c4ccc(C(=O)O)c(CC5CNC5)c4)c3n2)c1` [Example 27, 2-(azetidin-3-ylmethyl)-4-(3-(3,5-dimethylphenyl)-5H-pyrrolo[2,3-b]pyrazin-5-yl) benzoic Acid] displayed an IC50 of less than 100 nM. `Cc1cc(C)cc(-c2cnc3ccn(-c4ccc(C(=O)O)c(N[C@H]5CCNC5)c4)c3n2)c1` [Example 32, (S)-4-(3-(3,5-dimethylphenyl)-5H-pyrrolo[2,3-b]pyrazin-5-yl)-2-(pyrrolidin-3-ylamino)benzoic Acid]: the IC50 is less than 100 nM. Same read-out and setting: the result for `Cc1cc(C)cc(-c2cnc3ccn(-c4ccc(C(=O)O)c(N[C@@H]5CCNC5)c4)c3n2)c1` [Example 31, (R)-4-(3-(3,5-dimethylphenyl)-5H-pyrrolo[2,3-b]pyrazin-5-yl)-2-(pyrrolidin-3-ylamino)benzoic Acid] reads less than 100 nM. Compound `Cc1cc(-n2cc3ncc(F)c(-c4ccc(C(=O)O)c(C5CCCC5)c4)c3n2)cc(C(F)(F)F)c1` [Example 3.8, 2-Cyclopentyl-4-(6-fluoro-2-(3-methyl-5-(trifluoromethyl)phenyl)-2H-pyrazolo[4,3-b]pyridin-7-yl)benzoic Acid] yielded an IC50 of less than 100 nM. As to `N#Cc1ccc(-n2ccc3ncc(-c4ccccc4)nc32)cc1C1CCCC1` [Example 22, 2-Cyclopentyl-4-(3-phenyl-5H-pyrrolo[2,3-b]pyrazin-5-yl)benzonitrile], the IC50 was in the range of 1000 to 10000 nM.

`Cc1cc(C)cc(-c2cnc3ccn(-c4ccc(C(=O)O)c(C5CCNCC5)c4)c3n2)c1` [Example 29, 4-(3-(3,5-dimethylphenyl)-5H-pyrrolo[2,3-b]pyrazin-5-yl)-2-(piperidin-4-yl)benzoic Acid] had an IC50 of less than 100 nM. For `O=C(O)c1ccc(-n2ccc3ncc(-c4ccc(F)cc4)nc32)cc1NC1CC1` [Example 15, 2-(Cyclopropylamino)-4-(3-(4-fluorophenyl)-5H-pyrrolo[2,3-b]pyrazin-5-yl)benzoic Acid], the IC50 is less than 100 nM.

Turning to `Cc1cc(C)cc(-c2cnc3ccn(-c4ccc(C(=O)O)c(C5CCCNC5)c4)c3n2)c1` (single isomer, unassigned) [Example 28], the IC50 is less than 100 nM. On the same count and under the same terms, the result for `COc1cc(-c2ccnc3cn(-c4ccc(F)cc4)nc23)ccc1C(=O)N[C@H](CO)c1ccccc1` [Example 3.19, (S)-4-(2-(4-fluorophenyl)-2H-pyrazolo[4,3-b]pyridin-7-yl)-N-(2-hydroxy-1-phenylethyl)-2-methoxybenzamide] reads less than 100 nM; that for `N#CNC(=O)c1ccc(-c2ccnc3cn(-c4ccc(F)cc4)nc23)cc1C1CCCC1` [Example 3.20, N-Cyano-2-cyclopentyl-4-(2-(4-fluorophenyl)-2H-pyrazolo[4,3-b]pyridin-7-yl)benzamide], less than 100 nM. Same read-out and setting: in the case of `O=C(O)c1ccc(-c2ccnc3cc(-c4ccc(F)cc4)nn23)cc1C1CCCC1` [Example 2.5, 2-Cyclopentyl-4-(2-(4-fluorophenyl)pyrazolo[1,5-a]pyrimidin-7-yl)benzoic Acid] it was less than 100 nM; in that of `O=C(O)c1ccc(-c2ccnn3cc(-c4ccccc4F)cc23)cc1C1CCCC1` [Example 4.3, 2-Cyclopentyl-4-[6-(2-fluorophenyl)pyrrolo[1,2-b]pyridazin-4-yl]benzoic Acid], less than 100 nM; in that of `CCNc1cc(-n2ccc3ncc(-c4ccc5c(cnn5C)c4)nc32)ccc1C(=O)O` [Example 14, 2-(Ethylamino)-4-(3-(1-methyl-1H-indazol-5-yl)-5H-pyrrolo[2,3-b]pyrazin-5-yl)benzoic Acid], less than 100 nM. Compound `Cc1cc(C)cc(-c2cnc3ccn(-c4ccc(C(=O)O)c(O[C@@H]5CCNC5)c4)c3n2)c1` [Example 35, (R)-4-(3-(3,5-dimethylphenyl)-5H-pyrrolo[2,3-b]pyrazin-5-yl)-2-(pyrrolidin-3-yloxy)benzoic Acid] returned an IC50 of 100 to 1000 nM.

Consider `COc1cc(-n2cc3ncc(F)c(-c4ccc(C(=O)O)c(C5CCCC5)c4)c3n2)cc(C(F)(F)F)c1` [Example 3.13, 2-Cyclopentyl-4-(6-fluoro-2-(3-methoxy-5-(trifluoromethyl)phenyl)-2H-pyrazolo[4,3-b]pyridin-7-yl)benzoic Acid], for which the IC50 is less than 100 nM.

The same experiment, now with this note: binding IC50, 1 nM CaMKK2, 5 nM Kinase tracer 236, 20 minutes.
The compound “2-((azetidin-3-ylmethyl)amino)-4-(3-(3,5-dimethylphenyl)-5H-pyrrolo[2,3-b]pyrazin-5-yl)benzoic Acid [Example 30]” had an IC50 of less than 100 nM.
